Source: paper PMC5421785, “Citrullination only infrequently impacts peptide binding to HLA class II MHC” (PLoS ONE, 2017)
Read-outs that look alike come from different tables or passages of the source. Square brackets hold non-standard residues; d marks the D form. Peptide text beside a SMILES is read from it. Cit = NC(=O)NCCC[C@H](N)C(=O)O

How the values were obtained:
HLA-DRB1*01:01 = biological target: T1, HLA-DRB1*01:01 (Homo sapiens, UniProt P01903+P01911, A100R/D57E/F55L/F60I/F76Y/I96L/L162R/M171V/P40L/Q125E/R42F/V115G/Y59C); experiment: HLA class II peptide binding, inhibition of radiolabeled peptide binding to purified MHC
T1 construct: EBV transformed homozygous cell lines were used as sources of MHC molecules; endogenous in cells; host or cells: EBV transformed homozygous cell lines

HLA-DRB1*04:01 = biological target: T2, HLA-DRB1*04:01 (Homo sapiens, UniProt P01903+P01911, A100K/A169T/F76Y/I96L/K127E/L162R/M171V/N62H/P40V/Q125Y/R42H/S133A/S149N/S66Y/V115G/V209L/W38E); experiment: as above
T2 construct: EBV transformed homozygous cell lines were used as sources of MHC molecules; endogenous in cells; host or cells: EBV transformed homozygous cell lines

[1] = citrullinated 15-mer (X), purified MHC, inhibition of radiolabeled peptide binding, dash = IC50 >40,000 nM, read-out: DRB1*01:01 binding capacity, Cit peptide (IC50 nM)
[2] = citrullinated 15-mer (X), purified MHC, inhibition of radiolabeled peptide binding, dash = IC50 >40,000 nM, read-out: DRB1*04:01 binding capacity, Cit peptide (IC50 nM)
[3] = citrullinated 15-mer peptide (X = citrulline), purified HLA-DRB1*01:01, read-out: DRB1*01:01 binding capacity, Cit peptide (IC50 nM)
[4] = citrullinated 15-mer peptide (X = citrulline), purified HLA-DRB1*04:01, read-out: DRB1*04:01 binding capacity, Cit peptide (IC50 nM)
[5] = citrullinated peptide as listed (X at Cit position), read-out: DRB1*01:01 binding capacity Cit peptide (IC50 nM)
[6] = value of the wild-type (non-citrullinated) counterpart of the listed peptide, read-out: DRB1*01:01 binding capacity WT peptide (IC50 nM)
[7] = citrullinated peptide as listed (X at Cit position), read-out: DRB1*04:01 binding capacity Cit peptide (IC50 nM)
[8] = value of the wild-type (non-citrullinated) counterpart of the listed peptide, read-out: DRB1*04:01 binding capacity WT peptide (IC50 nM)

Structure (SMILES) | IC50 (HLA-DRB1*01:01; [1]) | IC50 (HLA-DRB1*04:01; [2]) | IC50 (HLA-DRB1*01:01; [3]) | IC50 (HLA-DRB1*04:01; [4]) | other results
CC(C)C[C@H](NC(=O)[C@H](CCC(N)=O)NC(=O)[C@H](CC(=O)O)NC(=O)[C@@H](NC(=O)[C@H](CCC(N)=O)NC(=O)[C@H](CCCNC(N)=O)NC(=O)[C@H](CCCNC(=N)N)NC(=O)[C@H](CC(C)C)NC(=O)[C@@H](N)CCC(=O)O)C(C)C)C(=O)N[C@H](C(=O)N[C@@H](CC(N)=O)C(=O)N[C@@H](CC(=O)O)C(=O)N[C@@H](CCCCN)C(=O)N[C@@H](C)C(=O)N[C@@H](CCCNC(=N)N)C(=O)O)[C@@H](C)O [ELRXQVDQLTNDKAR] (H-ELR[Cit]QVDQLTNDKAR-OH) | 2240 nM | 11000 nM |  |  | 
CC(C)C[C@H](NC(=O)[C@H](CCC(N)=O)NC(=O)[C@H](CC(=O)O)NC(=O)[C@@H](NC(=O)[C@H](CCC(N)=O)NC(=O)[C@H](CCCNC(=N)N)NC(=O)[C@H](CCCNC(N)=O)NC(=O)[C@H](CC(C)C)NC(=O)[C@@H](N)CCC(=O)O)C(C)C)C(=O)N[C@H](C(=O)N[C@@H](CC(N)=O)C(=O)N[C@@H](CC(=O)O)C(=O)N[C@@H](CCCCN)C(=O)N[C@@H](C)C(=O)N[C@@H](CCCNC(=N)N)C(=O)O)[C@@H](C)O [ELXRQVDQLTNDKAR] (H-EL[Cit]RQVDQLTNDKAR-OH) | 614 nM | 13400 nM |  |  | 
CSCC[C@H](NC(=O)[C@@H]1CCCN1C(=O)CNC(=O)[C@@H]1CCCN1C(=O)[C@H](CO)NC(=O)CNC(=O)[C@H](CC(N)=O)NC(=O)[C@@H](N)CCC(=O)O)C(=O)NCC(=O)N1CCC[C@H]1C(=O)N[C@@H](CCCNC(N)=O)C(=O)NCC(=O)N[C@@H](CC(C)C)C(=O)N1CCC[C@H]1C(=O)NCC(=O)O [ENGSPGPMGPXGLPG] (H-ENGSPGPMGP[Cit]GLPG-OH) |  |  | 31400 nM | > 40000 nM | 
C[C@H](NC(=O)CNC(=O)[C@H](C)NC(=O)[C@@H]1CCCN1C(=O)CNC(=O)[C@@H](NC(=O)[C@H](CCCNC(=N)N)NC(=O)CNC(=O)[C@H](CCCNC(=N)N)NC(=O)[C@@H](N)CCC(=O)O)[C@@H](C)O)C(=O)N[C@@H](C)C(=O)NCC(=O)N[C@@H](C)C(=O)N[C@@H](CCCNC(N)=O)C(=O)NCC(=O)O [ERGRTGPAGAAGAXG] (H-ERGRTGPAGAAGA[Cit]G-OH) |  |  | 1120 nM | > 40000 nM | 
C[C@H](NC(=O)CNC(=O)[C@H](C)NC(=O)[C@@H]1CCCN1C(=O)CNC(=O)[C@@H](NC(=O)[C@H](CCCNC(N)=O)NC(=O)CNC(=O)[C@H](CCCNC(=N)N)NC(=O)[C@@H](N)CCC(=O)O)[C@@H](C)O)C(=O)N[C@@H](C)C(=O)NCC(=O)N[C@@H](C)C(=O)N[C@@H](CCCNC(=N)N)C(=O)NCC(=O)O [ERGXTGPAGAAGARG] (H-ERG[Cit]TGPAGAAGARG-OH) |  |  | 3910 nM | > 40000 nM | 
CSCC[C@H](NC(=O)[C@H](CCC(=O)O)NC(=O)[C@H](CCCNC(N)=O)NC(=O)[C@H](CCSC)NC(=O)[C@H](CCC(N)=O)NC(=O)[C@H](CCCNC(=N)N)NC(=O)[C@@H](N)CCC(=O)O)C(=O)N[C@@H](CCC(=O)O)C(=O)N[C@@H](CCC(=O)O)C(=O)N[C@@H](CC(N)=O)C(=O)N[C@@H](Cc1ccccc1)C(=O)N[C@@H](C)C(=O)N[C@H](C(=O)N[C@@H](CCC(=O)O)C(=O)N[C@@H](C)C(=O)O)C(C)C [ERQMXEMEENFAVEA] (H-ERQM[Cit]EMEENFAVEA-OH) |  |  | 9530 nM | 3220 nM | 
CC(C)C[C@H](NC(=O)CNC(=O)[C@@H]1CCCN1C(=O)[C@H](Cc1ccccc1)NC(=O)CNC(=O)[C@H](CCCNC(N)=O)NC(=O)[C@@H](N)CCC(=O)O)C(=O)N1CCC[C@H]1C(=O)NCC(=O)N1CCC[C@H]1C(=O)N[C@@H](CO)C(=O)NCC(=O)N[C@@H](CCC(=O)O)C(=O)N1CCC[C@H]1C(=O)NCC(=O)O [EXGFPGLPGPSGEPG] (H-E[Cit]GFPGLPGPSGEPG-OH) |  |  | 2210 nM | > 40000 nM | 
C[C@H](NC(=O)CNC(=O)[C@H](C)NC(=O)[C@@H]1CCCN1C(=O)CNC(=O)[C@@H](NC(=O)[C@H](CCCNC(=N)N)NC(=O)CNC(=O)[C@H](CCCNC(N)=O)NC(=O)[C@@H](N)CCC(=O)O)[C@@H](C)O)C(=O)N[C@@H](C)C(=O)NCC(=O)N[C@@H](C)C(=O)N[C@@H](CCCNC(=N)N)C(=O)NCC(=O)O [EXGRTGPAGAAGARG] (H-E[Cit]GRTGPAGAAGARG-OH) |  |  | 1620 nM | > 40000 nM | 
CSCC[C@H](NC(=O)[C@H](CCC(=O)O)NC(=O)[C@H](CCCNC(=N)N)NC(=O)[C@H](CCSC)NC(=O)[C@H](CCC(N)=O)NC(=O)[C@H](CCCNC(N)=O)NC(=O)[C@@H](N)CCC(=O)O)C(=O)N[C@@H](CCC(=O)O)C(=O)N[C@@H](CCC(=O)O)C(=O)N[C@@H](CC(N)=O)C(=O)N[C@@H](Cc1ccccc1)C(=O)N[C@@H](C)C(=O)N[C@H](C(=O)N[C@@H](CCC(=O)O)C(=O)N[C@@H](C)C(=O)O)C(C)C [EXQMREMEENFAVEA] (H-E[Cit]QMREMEENFAVEA-OH) |  |  | 5960 nM | 1160 nM | 
CC[C@H](C)[C@H](NC(=O)[C@H](CC(=O)O)NC(=O)[C@@H](NC(=O)[C@@H](NC(=O)[C@@H]1CCCN1C(=O)[C@H](CC(C)C)NC(=O)[C@H](CCCNC(N)=O)NC(=O)[C@H](CO)NC(=O)[C@@H](NC(=O)[C@H](CCCCN)NC(=O)[C@H](CCC(N)=O)NC(=O)[C@H](CO)NC(=O)[C@H](CCCNC(=N)N)NC(=O)[C@H](Cc1ccc(O)cc1)NC(=O)[C@@H](N)CCC(=O)O)[C@@H](C)O)[C@@H](C)CC)[C@@H](C)CC)C(=O)O [EYRSQKTSXLPIIDI] (H-EYRSQKTS[Cit]LPIIDI-OH) |  |  |  |  | IC50 (HLA-DRB1*01:01; [5]): 6.9 nM; IC50 (HLA-DRB1*01:01; [6]): 14 nM; IC50 (HLA-DRB1*04:01; [7]): 316 nM; IC50 (HLA-DRB1*04:01; [8]): 314 nM
CC[C@H](C)[C@H](NC(=O)[C@H](CC(=O)O)NC(=O)[C@@H](NC(=O)[C@@H](NC(=O)[C@@H]1CCCN1C(=O)[C@H](CC(C)C)NC(=O)[C@H](CCCNC(=N)N)NC(=O)[C@H](CO)NC(=O)[C@@H](NC(=O)[C@H](CCCCN)NC(=O)[C@H](CCC(N)=O)NC(=O)[C@H](CO)NC(=O)[C@H](CCCNC(N)=O)NC(=O)[C@H](Cc1ccc(O)cc1)NC(=O)[C@@H](N)CCC(=O)O)[C@@H](C)O)[C@@H](C)CC)[C@@H](C)CC)C(=O)O [EYXSQKTSRLPIIDI] (H-EY[Cit]SQKTSRLPIIDI-OH) |  |  |  |  | IC50 (HLA-DRB1*01:01; [5]): 5.9 nM; IC50 (HLA-DRB1*01:01; [6]): 14 nM; IC50 (HLA-DRB1*04:01; [7]): 473 nM; IC50 (HLA-DRB1*04:01; [8]): 314 nM
CC[C@H](C)[C@H](NC(=O)[C@@H](NC(=O)[C@H](CC(=O)O)NC(=O)[C@H](CCC(N)=O)NC(=O)[C@H](Cc1ccc(O)cc1)NC(=O)[C@H](CC(N)=O)NC(=O)[C@H](C)NC(=O)[C@H](C)NC(=O)[C@H](CCC(=O)O)NC(=O)[C@@H](NC(=O)[C@H](C)NC(=O)[C@@H](N)Cc1ccccc1)C(C)C)[C@@H](C)O)C(=O)NCC(=O)N[C@@H](CCCNC(N)=O)C(=O)N[C@@H](CC(C)C)C(=O)O [FAVEAANYQDTIGXL] (H-FAVEAANYQDTIG[Cit]L-OH) |  |  | 642 nM | 768 nM | 

More lines, main results first:

IC50 (HLA-DRB1*01:01; [1]) | IC50 (HLA-DRB1*04:01; [2]) | IC50 (HLA-DRB1*01:01; [3]) | IC50 (HLA-DRB1*04:01; [4]) | Structure (SMILES) | other results
5380 nM | > 40000 nM |  |  | CC(C)C[C@H](NC(=O)[C@H](CCCNC(N)=O)NC(=O)[C@H](CO)NC(=O)[C@H](CCCCN)NC(=O)CNC(=O)[C@H](CCC(N)=O)NC(=O)CNC(=O)[C@H](CCCCN)NC(=O)[C@H](CC(C)C)NC(=O)[C@H](CCC(N)=O)NC(=O)[C@@H](N)CCC(=O)O)C(=O)NCC(=O)N[C@@H](CC(=O)O)C(=O)N[C@@H](CC(C)C)C(=O)N[C@@H](Cc1ccc(O)cc1)C(=O)O [EQLKGQGKSXLGDLY] | 
 |  | 96 nM | > 40000 nM | CC(C)C[C@H](NC(=O)CNC(=O)[C@H](CCCNC(N)=O)NC(=O)[C@@H](N)CCC(=O)O)C(=O)N[C@@H](CCCCN)C(=O)NCC(=O)N[C@@H](Cc1c[nH]cn1)C(=O)N[C@@H](CCCNC(=N)N)C(=O)NCC(=O)N[C@@H](Cc1ccccc1)C(=O)N[C@H](C(=O)NCC(=O)N[C@@H](CC(C)C)C(=O)N[C@@H](CCC(N)=O)C(=O)NCC(=O)O)[C@@H](C)O [EXGLKGHRGFTGLQG] (H-E[Cit]GLKGHRGFTGLQG-OH) | 
148 nM | > 40000 nM |  |  | CC[C@H](C)[C@H](NC(=O)[C@H](CCC(=O)O)NC(=O)[C@H](CCC(=O)O)NC(=O)[C@H](CCC(N)=O)NC(=O)[C@H](CC(C)C)NC(=O)[C@H](CO)NC(=O)[C@H](CCC(=O)O)NC(=O)[C@@H](NC(=O)[C@H](CCCCN)NC(=O)[C@H](CCCNC(N)=O)NC(=O)[C@@H](N)CCC(=O)O)C(C)C)C(=O)N[C@@H](C)C(=O)N[C@@H](Cc1ccccc1)C(=O)N[C@@H](CC(C)C)C(=O)N[C@@H](CCCCN)C(=O)O [EXKVESLQEEIAFLK] (H-E[Cit]KVESLQEEIAFLK-OH) | 
9330 nM | 1140 nM |  |  | CC(C)C[C@H](NC(=O)[C@H](CCC(=O)O)NC(=O)[C@H](CCC(N)=O)NC(=O)[C@H](CC(C)C)NC(=O)[C@H](CCC(=O)O)NC(=O)[C@@H](NC(=O)[C@H](CCCCN)NC(=O)[C@H](CCC(=O)O)NC(=O)[C@H](CC(N)=O)NC(=O)[C@@H](NC(=O)[C@H](CCCNC(N)=O)NC(=O)[C@@H](NC(=O)[C@H](CC(N)=O)NC(=O)[C@H](CCCCN)NC(=O)[C@@H](N)Cc1ccccc1)[C@@H](C)O)[C@@H](C)O)C(C)C)C(=O)O [FKNTXTNEKVELQEL] (H-FKNT[Cit]TNEKVELQEL-OH) | 
